This experiment concerns DIG10.3. As to the kind of experiment: Binding of tethered ligand to binding protein DIG10.3.

This note sets out measurements from US9952208B2, “Means and methods for bioluminescence resonance energy transfer (BRET) analysis in a biological sample” (priority 2013, dated 2018).

SMILES strings stand for the structures.

With `CC(=O)[C@H]1CC[C@H]2[C@@H]3CCC4=CC(=O)CC[C@]4(C)[C@H]3CC[C@]12C` [Progesterone, progesterone], the “binding to DIG10.3” value was “binds weakly”.
